The values below come from US11697646B2, “Triazole N-linked carbamoyl cyclohexyl acids as LPA antagonists” (BRISTOL-MYERS SQUIBB COMPANY, priority 2017, dated 2023).

In the test the target is T1, human LPA1 (Homo sapiens, UniProt Q92633).
T1 construct: expressed in transfected cells; host or cells: Chinese hamster ovary (CHO) cells
Description: LPA1 functional antagonist assay (calcium flux). Format: cell-based. The settings on record: CHO cells overexpressing human LPA1; calcium flux induced by 10 nM LPA; read-out: hLPA1 IC50. The procedure: The effectiveness of compounds of the present invention as LPA1 inhibitors can be determined in an LPA1 functional antagonist assay as follows:
The cells were then equilibrated to room temperature for 30 minutes before the assay. […] IC50 values were determined by fitting data to a 4-parameter logistic equation (GraphPad Prism, San Diego Calif.).
In general terms: Calcium assays in cells follow changes in intracellular calcium, usually with a dye or a luminescent sensor.

T1 sequence (Q92633 whole entry): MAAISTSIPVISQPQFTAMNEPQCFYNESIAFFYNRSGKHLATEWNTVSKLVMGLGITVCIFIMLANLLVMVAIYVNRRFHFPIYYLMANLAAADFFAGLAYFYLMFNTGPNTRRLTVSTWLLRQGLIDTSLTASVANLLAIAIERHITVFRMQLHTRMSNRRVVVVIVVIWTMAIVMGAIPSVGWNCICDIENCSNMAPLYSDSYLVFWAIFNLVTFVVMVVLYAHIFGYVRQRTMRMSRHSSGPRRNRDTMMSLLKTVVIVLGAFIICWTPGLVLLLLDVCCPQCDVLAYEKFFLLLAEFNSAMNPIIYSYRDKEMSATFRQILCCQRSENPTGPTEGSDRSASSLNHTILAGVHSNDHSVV

Take `CCC1(COC(=O)NCc2c(-c3ccc(O[C@H]4CCC[C@H](C(=O)O)C4)c(C)n3)nnn2C)CCC1` [Example 57, (1S,3S)-3-((6-(5-(((((1-ethylcyclobutyl)methoxy)carbonyl)amino)methyl)-1-methyl-1H-1,2,3-triazol-4-yl)-2-methylpyridin-3-yl)oxy)cyclohexane-1-carboxylic acid]: the half-maximal inhibitory concentration (IC50) amounted to 68 nM.
On to `CCC1(COC(=O)NCc2c(-c3ccc(O[C@H]4CCC[C@H](C(=O)O)C4)c(C)n3)nnn2C)CC1` [Example 58, (1S,3S)-3-((6-(5-(((((1-ethylcyclopropyl)methoxy)carbonyl)amino)methyl)-1-methyl-1H-1,2,3-triazol-4-yl)-2-methylpyridin-3-yl)oxy)cyclohexane-1-carboxylic acid], for which the IC50 amounted to 38 nM.
Turning to `Cc1nc(-c2nnn(C)c2CNC(=O)OCC2(C)CC2)ccc1O[C@H]1CCC[C@H](C(=O)O)C1` [Example 59, (1S,3S)-3-((2-methyl-6-(1-methyl-5-(((((1-methylcyclopropyl)methoxy)carbonyl)amino)methyl)-1H-1,2,3-triazol-4-yl)pyridin-3-yl)oxy)cyclohexane-1-carboxylic acid], the IC50 was 48 nM.
The result for `CCCC1(COC(=O)NCc2c(-c3ccc(O[C@H]4CCC[C@H](C(=O)O)C4)c(C)n3)nnn2C)CC1` [Example 60, (1S,3S)-3-((2-methyl-6-(1-methyl-5-(((((1-propylcyclopropyl)methoxy)carbonyl)amino)methyl)-1H-1,2,3-triazol-4-yl)pyridin-3-yl)oxy)cyclohexane-1-carboxylic acid] reads 12 nM; that for `Cc1ccc(OC(=O)NCc2c(-c3ccc(O[C@H]4CCC[C@H](C(=O)O)C4)c(C)n3)nnn2C)cc1` [Example 62, (1S,3S)-3-((2-methyl-6-(1-methyl-5-((((p-tolyloxy)carbonyl)amino)methyl)-1H-1,2,3-triazol-4-yl)pyridin-3-yl)oxy)cyclohexane-1-carboxylic acid], 148 nM.
Regarding `COc1ccc(OC(=O)NCc2c(-c3ccc(O[C@H]4CCC[C@H](C(=O)O)C4)c(C)n3)nnn2C)cc1` [Example 63, (1S,3S)-3-((6-(5-((((4-methoxyphenoxy)carbonyl)amino)methyl)-1-methyl-1H-1,2,3-triazol-4-yl)-2-methylpyridin-3-yl)oxy)cyclo-hexane-1-carboxylic acid], the IC50 was determined as 792 nM.
Next, `Cc1nc(-c2nnn(C)c2NC(=O)OC(C)(C)C)ccc1O[C@H]1CCC[C@H](C(=O)O)C1` [Example 64, (1S,3S)-3-((6-(5-((tert-butoxycarbonyl)amino)-1-methyl-1H-1,2,3-triazol-4-yl)-2-methylpyridin-3-yl)oxy)cyclohexane-1-carboxylicacid]: 54 nM; `Cc1nc(-c2nnn(C)c2NC(=O)OCCC(C)(C)C)ccc1O[C@H]1CCC[C@H](C(=O)O)C1` [Example 65, (1S,3S)-3-((6-(5-(((3,3-dimethyl-butoxy)carbonyl)amino)-1-methyl-1H-1,2,3-triazol-4-yl)-2-methyl-pyridin-3-yl)oxy)cyclohexane-1-carboxylic acid]: 75 nM; `Cc1nc(-c2nnn(C)c2NC(=O)OC2CCCC2)ccc1O[C@H]1CCC[C@H](C(=O)O)C1` [Example 66, (1S,3S)-3-((6-(5-(((cyclopentyloxy)carbonyl)amino)-1-methyl-1H-1,2,3-triazol-4-yl)-2-methylpyridin-3-yl)oxy)cyclohexane-1-carboxylic acid]: 68 nM.
Consider `Cc1nc(-c2nnn(C)c2NC(=O)OCC(C)(C)C)ccc1O[C@H]1CCC[C@H](C(=O)O)C1` [Example 67, (1S,3S)-3-((2-methyl-6-(1-methyl-5-(((neopentyloxy)carbonyl)amino)-1H-1,2,3-triazol-4-yl)pyridin-3-yl)oxy)cyclohexane-1-carboxylic acid], for which the half-inhibitory concentration (IC50) turned out to be 72 nM.
Next, `CCCOC(=O)Nc1c(-c2ccc(O[C@H]3CCC[C@H](C(=O)O)C3)c(C)n2)nnn1C` [Example 68, (1S,3S)-3-((2-methyl-6-(1-methyl-5-((propoxycarbonyl)amino)-1H-1,2,3-triazol-4-yl)pyridin-3-yl)oxy)cyclohexane-1-carboxylic acid]: 89 nM; `Cc1nc(-c2nnn(C)c2NC(=O)OC(C)C)ccc1O[C@H]1CCC[C@H](C(=O)O)C1` [Example 70, (1S,3S)-3-((6-(5-((isopropoxycarbonyl)amino)-1-methyl-1H-1,2,3-triazol-4-yl)-2-methylpyridin-3-yl)oxy)cyclohexane-1-carboxylic acid]: 129 nM.
On to `CCCCCOC(=O)Nc1c(-c2ccc(O[C@H]3CCC[C@H](C(=O)O)C3)c(C)n2)nnn1C` [Example 71, (1S,3S)-3-((2-methyl-6-(1-methyl-5-(((pentyloxy)carbonyl)amino)-1H-1,2,3-triazol-4-yl)pyridin-3-yl)oxy)cyclohexane-1-carboxylic acid], for which the IC50 was determined as 6 nM.
In the case of `Cc1nc(-c2nnn(C)c2NC(=O)O[C@H](C)c2ccccc2)ccc1O[C@H]1CCC[C@H](C(=O)O)C1` [Example 72, (1S,3S)-3-((2-methyl-6-(1-methyl-5-((((R)-1-phenylethoxy)carbonyl)amino)-1H-1,2,3-triazol-4-yl)pyridin-3-yl)oxy)cyclohexane-1-carboxylic acid], the IC50 amounted to 26 nM.
Regarding `Cc1nc(-c2nnn(C)c2NC(=O)OCCC2CC2)ccc1O[C@H]1CCC[C@H](C(=O)O)C1` [Example 73, (1S,3S)-3-((6-(5-(((2-cyclopropyl-ethoxy)carbonyl)amino)-1-methyl-1H-1,2,3-triazol-4-yl)-2-methyl-pyridin-3-yl)oxy)cyclohexane-1-carboxylic acid], the IC50 is 11 nM.
For `Cc1nc(-c2nnn(C)c2NC(=O)OCC2CC2)ccc1O[C@H]1CCC[C@H](C(=O)O)C1` [Example 74, (1S,3S)-3-((6-(5-(((cyclopropyl-methoxy)carbonyl)amino)-1-methyl-1H-1,2,3-triazol-4-yl)-2-methyl-pyridin-3-yl)oxy)cyclohexane-1-carboxylic acid], the IC50 was 14 nM.
As to `Cc1nc(-c2nnn(C)c2NC(=O)OCC2CCC2)ccc1O[C@H]1CCC[C@H](C(=O)O)C1` [Example 75], the IC50 is 22 nM.
On to `Cc1nc(-c2nnn(C)c2NC(=O)OCC2CCCCC2)ccc1O[C@H]1CCC[C@H](C(=O)O)C1` [Example 76, (1S,3S)-3-((6-(5-(((cyclohexyl-methoxy)carbonyl)amino)-1-methyl-1H-1,2,3-triazol-4-yl)-2-methyl-pyridin-3-yl)oxy)cyclohexane-1-carboxylic acid], for which the half-inhibitory concentration (IC50) was found to be 19 nM.
In the case of `Cc1nc(-c2nnn(C)c2NC(=O)OCCC(C)C)ccc1O[C@H]1CCC[C@H](C(=O)O)C1` [Example 77, (1S,3S)-3-((6-(5-(((isopentyloxy)carbonyl)amino)-1-methyl-1H-1,2,3-triazol-4-yl)-2-methylpyridin-3-yl)oxy)cyclohexane-1-carboxylic acid], the IC50 is 20 nM.
On to `Cc1nc(-c2nnn(C)c2NC(=O)OCC(C)C)ccc1O[C@H]1CCC[C@H](C(=O)O)C1` [Example 78, (1S,3S)-3-((6-(5-((isobutoxy-carbonyl)amino)-1-methyl-1H-1,2,3-triazol-4-yl)-2-methylpyridin-3-yl)oxy)cyclohexane-1-carboxylic acid], for which the IC50 was 29 nM.
`Cc1nc(-c2nnn(C)c2NC(=O)OCC2CCCC2)ccc1O[C@H]1CCC[C@H](C(=O)O)C1` [Example 79, (1S,3S)-3-((6-(5-(((cyclopentylmethoxy)carbonyl)amino)-1-methyl-1H-1,2,3-triazol-4-yl)-2-methylpyridin-3-yl)oxy)cyclohexane-1-carboxylic acid]: the half-inhibitory concentration (IC50) was 32 nM.
On to `Cc1nc(-c2nnn(C)c2NC(=O)OCc2ccccc2)ccc1O[C@H]1CCC[C@H](C(=O)O)C1` [Example 80, (1S,3S)-3-((6-(5-(((benzyloxy)carbonyl)amino)-1-methyl-1H-1,2,3-triazol-4-yl)-2-methylpyridin-3-yl)oxy)cyclohexane-1-carboxylic acid], for which the IC50 amounted to 37 nM.
Take `Cn1nnc(-c2ccc(O[C@H]3CCC[C@H](C(=O)O)C3)cn2)c1NC(=O)OCC1CCC1` [Example 81]: the IC50 was determined as 56 nM.
Turning to `C[C@@H](OC(=O)Nc1c(-c2ccc(O[C@H]3CCC[C@H](C(=O)O)C3)cn2)nnn1C)C1CC1` [Example 82, (1S,3S)-3-((6-(5-((((R)-1-cyclopropyl-ethoxy)carbonyl)amino)-1-methyl-1H-1,2,3-triazol-4-yl)pyridin-3-yl)oxy)cyclohexane-1-carboxylic acid], the half-inhibitory concentration (IC50) stood at 79 nM.
On to `Cn1nnc(-c2ccc(O[C@H]3CCC[C@H](C(=O)O)C3)cn2)c1NC(=O)OCC1CC1` [Example 83, (1S,3S)-3-((6-(5-(((cyclopropyl-methoxy)carbonyl)amino)-1-methyl-1H-1,2,3-triazol-4-yl)pyridin-3-yl)oxy)cyclohexane-1-carboxylic acid], for which the concentration for half-maximal inhibition (IC50) is 178 nM.
Consider `Cn1nnc(-c2ccc(O[C@H]3CCC[C@H](C(=O)O)C3)cn2)c1NC(=O)OCCC1CC1` [Example 84, (1S,3S)-3-((6-(5-(((2-cyclopropyl-ethoxy)carbonyl)amino)-1-methyl-1H-1,2,3-triazol-4-yl)pyridin-3-yl)oxy)cyclohexane-1-carboxylic acid], for which the concentration for half-maximal inhibition (IC50) worked out at 38 nM.
On to `CC(C)CCOC(=O)Nc1c(-c2ccc(O[C@H]3CCC[C@H](C(=O)O)C3)cn2)nnn1C` [Example 85, (1S,3S)-3-((6-(5-(((isopentyloxy)carbonyl)amino)-1-methyl-1H-1,2,3-triazol-4-yl)pyridin-3-yl)oxy)cyclohexane-1-carboxylic acid], for which the half-inhibitory concentration (IC50) came to 115 nM.
As to `Cn1nnc(-c2ccc(O[C@H]3CCC[C@H](C(=O)O)C3)cn2)c1NC(=O)OCC1CCCCC1` [Example 86, (1S,3S)-3-((6-(5-(((cyclohexyl-methoxy)carbonyl)amino)-1-methyl-1H-1,2,3-triazol-4-yl)pyridin-3-yl)oxy)cyclohexane-1-carboxylic acid], the IC50 amounted to 36 nM.

In general, IC50 refers to the concentration at which inhibition is half-maximal.
